In the assay the test system is Kv1.1. The assay can be described thus: microelectrode voltage-clamp, Xenopus laevis oocytes, Kv1.1. It counts as cell-based. To be noted: 10 μM, 300-ms depolarization to +20 mV from -90 mV, pH 7.5, 19-23°C, n = 3. How it is done:
Briefly, plasmids were linearized, and transcription was carried out according to the standardized protocol. Afterwards, the capped cRNAs that encoded the related ion channels were prepared. To conduct transcription in vitro, firstly, NotL was utilized to linearize plasmids pCI that contained both Kv1.1 (Accession: NM_010595.3) and Kv2.1 (Accession: AF026005.1), whereas SphI was adopted to linearize plasmid PcDNA3 containing Kv1.2 (Accession: NM_012970.3) gene. […] Thereafter, the linearized plasmids were used as the templates to synthesize cRNAs in vitro using the large-scale T7 mMESSAGE mMACHINE transcription kit (Ambion, USA).
A mature female X. laevis was placed on the ice for anesthesia, and then the Xenopus laevis oocytes at stage IV-VI were extracted. Subsequently, those extracted oocytes were treated by collagenase (1 mg/mL) contained within the calcium-depleted ND96 solution (containing 96 mM NaCl, 10 mM HEPES, 1 mM MgCl2, and 2 mM KCl) for defolliculation. […]
Firstly, the effects of JZTX-X on the isoforms of potassium channels (including Kv1.1-1.3, Kv2.1, as well as Kv4.2-4.3) contained within the X. laevis oocytes were investigated through the microelectrode voltage-clamp approach. […] We also determined the effects of JZTX-X on Ito potassium channels in rat DRG neurons; those current amplitudes were inhibited by 54.4±6.8% when 500 nM JZTX-X was applied (Fig. 3K, n = 5).

Where a SMILES comes first, the peptide text is derived from it. Bridges are numbered along the chain shown (N, C = ends).

Take `CC(C)C[C@@H]1NC(=O)[C@H](CCCCN)NC(=O)[C@H](Cc2ccc(O)cc2)NC(=O)[C@@H]2CSSC[C@@H]3NC(=O)[C@H](Cc4ccc(O)cc4)NC(=O)[C@H](Cc4ccccc4)NC(=O)CNC(=O)[C@H](C)NC(=O)[C@H](CSSC[C@H](NC(=O)[C@@H](N)CC(C)C)C(=O)N[C@@H](CO)C(=O)N[C@@H](CCCNC(=N)N)C(=O)N[C@@H](CCC(=O)O)C(=O)NCC(=O)N[C@@H](CCC(=O)O)C(=O)N[C@@H](Cc4ccccc4)C(=O)N2)NC(=O)[C@H](CSSC[C@@H](C(=O)N[C@@H](Cc2ccc(O)cc2)C(=O)N[C@@H](CCCNC(=N)N)C(=O)N[C@@H](CC(N)=O)C(=O)O)NC(=O)[C@H](Cc2c[nH]cn2)NC(=O)[C@H](CC(C)C)NC(=O)[C@H](C(C)C)NC(=O)[C@H](Cc2ccccc2)NC(=O)[C@H](C)NC(=O)[C@H](CCCCN)NC3=O)NC(=O)[C@H](CCCCN)NC(=O)[C@H](CCCNC(=N)N)NC1=O` [JZTX-X, Jingzhaotoxin-X] (H-LCSREGEFCYKLRKCCAGFYCKAFVLHCYRN-OH; disulfide 2-16, 9-21, 15-28; N-terminus assumed): the “inhibition of Kv1.1 current” value is listed as “less than 5%”.

These data come from PMC7269146, “Jingzhaotoxin-X, a gating modifier of Kv4.2 and Kv4.3 potassium channels purified from the venom of the Chinese tarantula Chilobrachys jingzhao” (The Journal of Venomous Animals and Toxins Including …, 2020).
